Test results from patent publication US20250197428A1, “INHIBITORS OF KIF18A AND USES THEREOF” (ACCENT THERAPEUTICS, INC., priority 2022, published 2025).
Like-named read-outs stand apart in the source and are kept apart here.

Columns and labels:
KIF18A = KIF18A (Homo sapiens (Human), UniProt Q8NI77); test: KIF18A Biochemical Assay (ATPase, ADP-Glo)
OVCAR-3 cells = test: In vitro anti-proliferative activity assay in cancer cell line OVCAR-3 (CellTiter-Glo, 4- or 7-day); type: cell-based; conditions: Homo sapiens, read-out: OVCAR-3 cellular antiproliferation assay IC50
[1] = Caco-2 permeation assay, bidirectional permeability; type: in vitro ADME; conditions: human, Caco-2, pH 7.4, 5 μM, Papp(B-A)/Papp(A-B)
Description: 1. Caco-2 Permeation Assay: Evaluation of the Bidirectional Permeabilities of Compounds.
Samples were analyzed through LC/MS/MS for estimating the apparent permeability coefficients (Papp) of compounds across Caco-2 cell monolayers. Caco-2 cells (American Type Culture Collection) were incubated and seeded onto HTS Transwell-96 Well Permeable Supports (Corning Corporation) for 14 days using a cell medium consisting of Dulbecco's Modified Eagle's Medium (DMEM) with high glucose and L-glutamine supplemented with 10% FBS, 1× penicillin-streptomycin mixture and 1×non-essential amino acids (NEAA). Cell monolayer integrity was measured using an automated tissue resistance measuring system (World Precision Instruments). Stock solutions of compounds and control compounds in DMSO were diluted with HBSS (10 mM HEPES, pH 7.4) to reach a final concentration of 5 μM with a final concentration of DMSO <0.1%. HBSS was then removed after 30 minutes of preincubation, and 75 μL of test compound was added to the apical compartment of the Transwell insert. The basolateral compartment was filled with 235 μL of HBSS (10 mM HEPES, pH 7.4) containing 2% BSA. Rate of drug transport in the basolateral to apical direction was obtained by adding 235 μL of test compound to the receiver plate wells (basolateral compartment) and filling with 75 μL of HBSS (10 mM HEPES, pH 7.4) containing 2% BSA. Time 0 samples were prepared by transferring 25 μL of 5 μM working solution to wells of the 96-deepwell plate containing 25 μL HBSS (10 mM HEPES and 2% BSA, pH 7.4), followed by the addition 200 μL of cold methanol containing appropriate internal standards (100 nM alprazolam, 200 nM labetalol, 200 nM caffeine and 200 nM diclofenac). After incubating at 37° C. for 2 h, 25 μL samples from donor sides (apical compartment) were transferred to a 96-well plate containing 25 μL HBSS (10 mM HEPES and 2% BSA, pH 7.4). 25 μL samples from receiver sides (basolateral compartment) were removed and transferred to a new plate containing 25 μL HBSS (10 mM HEPES, pH 7.4). 200 μL of cold methanol containing internal standards (100 nM alprazolam, 200 nM labetalol, 200 nM caffeine and 200 nM diclofenac) was added to terminate the reaction. Samples were vortexed for 5 minutes and then centrifuged at 3,220 g for 40 minutes. An aliquot of 100 μL of the supernatant is mixed with 100 μL of ultra-pure water for LC-MS/MS analysis. All incubations are performed in duplicate. Solutions were discarded from the transwell plate. 100 μL Lucifer Yellow solution (100 μM in HBSS) was added to each well of transwell insert and 300 μL of HBSS to each well of receiver. After incubating at 37° C. for 30 minutes, 80 μL was aliquotted from each well of apical and basolateral sides to a solid black plate. The plate was then read with Tecan Infinite™ M 200 (Excitation/Emission wavelength […]).
All calculations were carried out using Microsoft Excel. Peak areas were determined from extracted ion chromatograms. The leakage of Lucifer Yellow, in unit of percentage (%), can be calculated using the following equation: […]
LY leakage of <1% is acceptable to indicate the well-qualified Caco-2 monolayers. The apparent permeability coefficient (Papp), in units of centimeter per second, can be calculated for Caco-2 drug transport assays using the following equation: […]
Where VA is the volume (in mL) in the receiver well (0.235 mL for Ap→Bl flux and 0.075 mL for Bl→Ap flux), Area is the surface area of the membrane (0.143 cm^2 for HTS Transwell-96 Well Permeable Supports), and time is the total transport time in seconds. The efflux ratio can be determined using the following equation: […]
Where Papp (B-A) indicates the apparent permeability coefficient in basolateral to apical direction, and Papp (A-B) indicates the apparent permeability coefficient in apical to basolateral direction.
The recovery can be determined using the following equation: […]

[2] = In vivo pharmacokinetic evaluation in mouse; design: species or system female balb/c nude mice; conditions: for IV Clearance / Vd: 3 mg/kg IV; for Vd: read-out: IV Vss
[3] = Bone marrow concentration in 28 day OVCAR-3 xenograft study; type: in vivo, mice; conditions: NOD SCID, mouse, 30 mg/kg QD oral, 28 day study
Description: On Day 28, tissues were collected from animals. About 30-60 μL of whole blood was collected into tubes containing EDTA anticoagulant, and plasma was harvested by centrifugation at 4,000 g×5 min and stored at −80° C. until analysis. Plasma analysis followed the same protocol as for the Day 1 plasma analysis. Additionally, the femurs of the mice were cut and put in pre-weighed tubes. The bone marrow was harvested by centriguation at 8,000 g×15 min. Then, the total weight of both the bone marrow and the tube was recorded. The bone marrow was stored at −80° C. until analysis.
Samples were collected from animals 6 h after the last dose of compound and at 24 h after the last dose of compound.

[4] = system: human megakaryocyte (CFU-MK) progenitors from human bone marrow mononuclear cells; test: Human megakaryocyte progenitor colony formation assay (CFU-MK); type: cell-based; conditions: 336 h, read-out: Free-fraction adjusted CFU-MK IC50
[5] = 14 days culture, adjusted for binding to assay buffer

Sequence of KIF18A (Q8NI77 1-367): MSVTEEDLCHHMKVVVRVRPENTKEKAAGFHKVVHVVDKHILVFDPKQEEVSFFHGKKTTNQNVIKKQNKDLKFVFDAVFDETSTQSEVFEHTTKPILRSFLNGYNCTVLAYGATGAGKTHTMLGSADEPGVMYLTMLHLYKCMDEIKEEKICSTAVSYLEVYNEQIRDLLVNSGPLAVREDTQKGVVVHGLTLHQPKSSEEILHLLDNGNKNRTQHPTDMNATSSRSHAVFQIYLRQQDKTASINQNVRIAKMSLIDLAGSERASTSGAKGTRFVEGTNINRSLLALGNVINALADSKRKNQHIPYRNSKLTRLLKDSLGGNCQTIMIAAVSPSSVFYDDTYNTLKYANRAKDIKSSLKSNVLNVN
Sequence of KIF18A (P02550 whole entry partner): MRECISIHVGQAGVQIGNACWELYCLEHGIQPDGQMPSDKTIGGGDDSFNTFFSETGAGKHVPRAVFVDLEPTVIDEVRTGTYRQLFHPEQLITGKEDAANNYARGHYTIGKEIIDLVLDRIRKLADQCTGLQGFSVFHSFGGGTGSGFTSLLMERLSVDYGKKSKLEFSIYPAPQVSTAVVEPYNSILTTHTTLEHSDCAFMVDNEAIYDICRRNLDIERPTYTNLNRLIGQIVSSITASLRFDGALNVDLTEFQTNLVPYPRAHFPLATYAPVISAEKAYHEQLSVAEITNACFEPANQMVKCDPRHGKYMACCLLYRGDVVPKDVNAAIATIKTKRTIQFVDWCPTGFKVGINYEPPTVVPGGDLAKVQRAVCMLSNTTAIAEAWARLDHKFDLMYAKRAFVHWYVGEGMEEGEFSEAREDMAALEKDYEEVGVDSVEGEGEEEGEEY
Sequence of KIF18A (P02554 whole entry partner): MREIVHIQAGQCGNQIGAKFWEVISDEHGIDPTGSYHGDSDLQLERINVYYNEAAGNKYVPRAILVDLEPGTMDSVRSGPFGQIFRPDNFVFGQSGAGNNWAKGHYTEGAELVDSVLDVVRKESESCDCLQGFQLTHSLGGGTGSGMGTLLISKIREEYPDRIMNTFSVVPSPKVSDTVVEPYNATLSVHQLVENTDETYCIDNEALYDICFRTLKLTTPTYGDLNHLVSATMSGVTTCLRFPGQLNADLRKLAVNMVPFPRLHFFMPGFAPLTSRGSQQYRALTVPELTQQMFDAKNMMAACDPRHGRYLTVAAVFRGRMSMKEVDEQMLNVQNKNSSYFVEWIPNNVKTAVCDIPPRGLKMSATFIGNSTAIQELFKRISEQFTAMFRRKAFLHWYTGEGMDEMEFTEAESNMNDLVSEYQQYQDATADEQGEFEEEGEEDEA

Row | Compound | IC50 (KIF18A) [µM] | IC50 (OVCAR-3 cells; OVCAR-3, 168 h, 7-day assay) [µM] | efflux ratio at 2 h, 5 μM [1] | also measured
1 | Cc1cc(NC(=O)c2ccc(NS(=O)(=O)CCO)cc2N2CC[C@@]3(F)CC[C@H]3C2)nc(N2CCC(F)(F)CC2)n1 (single isomer, unassigned) [Example 50b] | < 0.1 | 0.1 to 0.5 | < 10 | IV Clearance [2]: 0.74 mL/ming/kg; Vd ([2]; female, balb/c nude, plasma): 0.51 L/kg; Cmax ([2]; female, balb/c nude, plasma, 10 mg/kg PO): 10.1 µg/mL; half-life ([2]; female, balb/c nude, plasma, 10 mg/kg PO, read-out: PO T1/2 (converted)): 10.6 h
2 | Cc1cc(NC(=O)c2ccc(NS(=O)(=O)CCO)cc2N2CCC3(CC2)CC3)nc(N2CCC(F)(F)CC2)n1 [Compound A, reference compound] | – | – | – | IC50 (OVCAR-3 cells; OVCAR-3, 96 h, 4-day assay): < 0.1 µM; IV Clearance [2]: 4.1 mL/ming/kg; Vd ([2]; female, balb/c nude, plasma): 2 L/kg; concentration at 6 h ([3]; read-out: Bone marrow concentration at 6 h post-last dose): 17000 ng/g; concentration at 24 h ([3]; read-out: Bone marrow concentration at 24 h post-last dose): 4100 ng/g
3 | C[Si]1(C)CCN(c2cc(NS(=O)(=O)CCO)c(F)cc2C(=O)Nc2cccc(N3CCC(F)(F)CC3)n2)CC1 [Example 14] | < 0.1 | – | – | IC50 (OVCAR-3 cells; OVCAR-3, 96 h, 4-day assay): < 0.1 µM; IC50 [4]: 0.061 µM
4 | Cc1cc(NC(=O)c2ccc(NS(=O)(=O)CCO)cc2N2CC[C@@]3(C)C[C@H]3C2)nc(N2CCC(F)(F)CC2)n1 [Example 36] | < 0.1 | – | – | IC50 (OVCAR-3 cells; OVCAR-3, 96 h, 4-day assay): 0.1 to 0.5 µM; IC50 [4, 5]: 0.082 µM
5 | Cc1cc(NC(=O)c2ccc(S(=O)(=O)NCCO)cc2N2CC[C@@]3(C(F)F)C[C@H]3C2)nc(N2CCC(F)(F)CC2)n1 [Example 78] | < 0.1 | 0.1 to 0.5 | < 10 | –
6 | O=C(Nc1cccc(N2CCC(F)(F)CC2)n1)c1c(F)cc(NS(=O)(=O)CCO)cc1N1CC[C@@]2(C(F)F)C[C@H]2C1 [Example 84] | < 0.1 | 0.1 to 0.5 | < 10 | –
7 | C[Si]1(C)CCN(c2cc(NS(=O)(=O)CCO)ccc2NC(=O)c2ccnc(OCCC(F)(F)F)n2)CC1 [Example 88] | 0.1 to 0.5 | 0.5 to 1 | < 10 | –
8 | CC(C)(C)NS(=O)(=O)c1cccc(NC(=O)c2ccc(NS(=O)(=O)CCO)cc2N2CC[Si](C)(C)CC2)n1 [Example 98] | < 0.1 | – | < 10 | IC50 (OVCAR-3 cells; OVCAR-3, 96 h, 4-day assay): < 0.1 µM
9 | C[Si]1(C)CCN(c2cc(NS(=O)(=O)CCN)ccc2C(=O)Nc2cccc(N3CCC(F)(F)CC3)n2)CC1 [Example 100] | < 0.1 | 0.1 to 0.5 | < 10 | –
10 | Cc1cc(NC(=O)c2ccc(NS(=O)(=O)CCO)cc2N2CC[Si](C)(C)CC2)nc(N2CCOC3(CC3)C2)n1 [Example 102] | < 0.1 | < 0.1 | ≥ 10 | –
11 | CC(=O)NCCS(=O)(=O)Nc1ccc(C(=O)Nc2cccc(N3CCC(F)(F)CC3)n2)c(N2CC[Si](C)(C)CC2)c1 [Example 104] | < 0.1 | 0.1 to 0.5 | < 10 | –
12 | Cc1cc(NC(=O)c2cnc(NS(=O)(=O)CCO)cc2N2CC[Si](C)(C)CC2)nc(N2CCC(F)(F)CC2)n1 [Example 106] | < 0.1 | < 0.1 | < 10 | –
13 | Cc1cc(NC(=O)c2cc(F)c(NS(=O)(=O)CCO)cc2N2CC[Si](C)(C)CC2)nc(N2CCC(F)(F)CC2)c1 [Example 107] | < 0.1 | < 0.1 | < 10 | IC50 [4, 5]: 0.047 µM
14 | C[Si]1(C)CCN(c2cc(NS(=O)(=O)CCO)ccc2C(=O)Nc2cncc(N3CCC(F)(F)CC3)n2)CC1 [Example 108] | < 0.1 | < 0.1 | < 10 | –
15 | Cc1cc(NC(=O)c2ccc(NS(=O)(=O)CCO)nc2N2CC[Si](C)(C)CC2)nc(N2CCC(F)(F)CC2)n1 [Example 109] | < 0.1 | 0.5 to 1 | < 10 | –
16 | Cc1cc(NC(=O)c2c(F)cc(NS(=O)(=O)CCO)cc2N2CC[Si](C)(C)CC2)nc(N2CCC(F)(F)CC2)n1 [Example 110] | < 0.1 | < 0.1 | < 10 | –
17 | Cc1cc(NC(=O)c2ccc(NS(=O)(=O)[C@H](C)CO)cc2N2CC[Si](C)(C)CC2)nc(N2CCC(F)(F)CC2)n1 [Example 111] | < 0.1 | < 0.1 | ≥ 10 | –
18 | Cc1cc(NC(=O)c2ccc(NS(=O)(=O)[C@@H](C)CO)cc2N2CC[Si](C)(C)CC2)nc(N2CCC(F)(F)CC2)n1 [Example 112] | < 0.1 | 0.1 to 0.5 | ≥ 10 | –
19 | CC(CO)S(=O)(=O)Nc1ccc(C(=O)Nc2cccc(OCCC(F)(F)F)n2)c(N2CC[Si](C)(C)CC2)c1 (stereo not shown) [Example 113] | < 0.1 | 0.1 to 0.5 | < 10 | –
20 | Cc1cc(NC(=O)c2ccc(NS(=O)(=O)CCO)cc2N2CC[Si](C)(C)CC2)nc(N2CCOC(F)(F)C2)n1 [Example 115] | < 0.1 | 0.1 to 0.5 | ≥ 10 | –
21 | Cc1cc(NC(=O)c2ccc(NS(=O)(=O)NCCO)cc2N2CC[Si](C)(C)CC2)nc(N2CCC(F)(F)CC2)n1 [Example 117] | 0.1 to 0.5 | 0.1 to 0.5 | < 10 | –
22 | CNS(=O)(=O)Nc1ccc(C(=O)Nc2cc(C)nc(C3CCC(F)(F)CC3)n2)c(N2CC[Si](C)(C)CC2)c1 [Example 118] | < 0.1 | 0.1 to 0.5 | < 10 | –
23 | C[Si]1(C)CCN(c2cc(NS(=O)(=O)CCO)ccc2C(=O)Nc2cccc(OCC(O)C(F)(F)F)n2)CC1 (stereo not shown) [Example 119] | < 0.1 | < 0.1 | < 10 | –
24 | C[Si]1(C)CCN(c2cc(S(=N)(=O)C3CC3)ccc2C(=O)Nc2cccc(N3CCC(F)(F)CC3)n2)CC1 (stereo not shown) [Example 120] | < 0.1 | < 0.1 | < 10 | –
25 | C[Si]1(C)CCN(c2cc(NS(=O)(=O)CCO)ccc2C(=O)Nc2cccc(OC[C@@H](O)C(F)(F)F)n2)CC1 [Example 121] | < 0.1 | < 0.1 | < 10 | –
26 | C[Si]1(C)CCN(c2cc(NS(C)(=O)=O)ccc2C(=O)Nc2cccc(OC[C@@H](O)C(F)(F)F)n2)CC1 [Example 127] | < 0.1 | < 0.1 | < 10 | –
27 | Cc1cc(NC(=O)c2ccc(NS(=O)(=O)N(C)CCO)cc2N2CC[Si](C)(C)CC2)nc(N2CCC(F)(F)CC2)n1 [Example 134] | < 0.1 | 0.1 to 0.5 | < 10 | –
